Results from patent publication US20210070723A1, “CRYSTAL FORM OF SESQUITERPENE DERIVATIVE, PREPARATION METHOD THEREFOR AND USE THEREOF” (Nankai University, priority 2017, published 2021).
Read-outs that look alike come from different tables or passages of the source.

Assays:
[1] = Hygroscopicity: open weighing bottles in a constant temperature and humidity incubator, moisture absorption rate; assay type: physicochemical; conditions: for Moisture absorption rates after 1 month / Moisture absorption rates after 2 months / Moisture absorption rates after 2 weeks: 25° C., 75% humidity; for hygroscopicity (in words): compared with the amorphous compound of structural formula (I)
Method: The crystal form A products prepared in example 1, example 2 and example 3 were taken and placed in weighing bottles for precision weighing. The caps of the bottles were opened, the bottles were put on an upper part of a drier and placed in a constant temperature and humidity incubator with 25° C. and 75% humidity, three parts were subjected to parallel operation, and then taken and weighed in two weeks, one month and two months respectively, and the compound amorphous powder of structural formula (I) was used as comparative example 1. Moisture absorption rate=(weight after moisture absorption - weight before moisture absorption)/weight before moisture absorption×100%.

IPF model (bleomycin) = test: Animal drug effect in the bleomycin-induced IPF model, intragastric administration; assay type: in vivo, C57BL/6 mice; conditions: for overall effect on idiopathic pulmonary fibrosis: bleomycin mouse model, vs Pirfenidone and Nintedanib
Method: Trial mice were C57BL/6 mice, 35 mice in total, 7 mice in each group, including a saline group, a bleomycin group, a Nintedanib group (100 mpk), a Pirfenidone group (200 mpk) and a group (100 mpk) administrating the crystal form A of the compound of structural formula (I). On day 0, bleomycin (2U/kg) was injected using a trachea to establish an IPF model, 0-7 days were inflammation periods of mice, and 7-14 days were fibrosis lasting progressive periods of mice. Administration was conducted on the day 7, materials were taken on the day 14, the lung functions of mice were measured after mice were narcotized, then the left lungs were taken to make pathological sections, and the right lungs were used to measure hydroxyproline.

[2] = Absorption experiment (pharmacokinetics and bioavailability) in rats; assay type: in vivo; conditions: Sprague Dawley, plasma, rat; for bioavailability: oral, 150 mpk
Method: Trial rats were Sprague Dawley rats, 7 rats in total, 1 rat was used as blank control, and blank plasma was taken to be used. 3 rats were administrated via tail intravenous injection (30 mpk), and 3 rats were orally and intragastrically administrated (150 mpk). According to the set time schedule, blood was collected from orbital vein to put in a blood collection vessel containing heparin sodium, centrifuged for 10min at 4° C. and 3500rpm, the supernatant of plasma was taken and put into EP tube, and the content of the compound of structural formula (I) in blood was detected. Bioavailability was calculated according to the following formula: bioavailability F %=(AUCpo/AUCIV)×(dose IV/dose po)×100%; Time schedule was set, as shown in Table 2. AUCpo is an area under the drug concentration-time curve under administrating oral drug, AUCIV is an area under the drug concentration-time curve under intravenous injecting drug, dose IV is the dose of the injected drug, the dose po is the dose of the oral drug, Tmax (h) is the time to reach the blood peak, T1/2 (h) is the half-life of blood concentration, and Cmax (ng/mL) is the drug peak concentration of the drug-time curve.

[3] = 30 mg/kg, intravenous injection (30 mpk)
[4] = 150 mg/kg, oral administration (150 mpk)

## CN(C)C[C@@H]1C(=O)O[C@@H]2C[C@@]3(C)CC[C@@H](O)[C@]4(CO4)[C@@H]3C[C@H]12.O=C(O)CCC(=O)O [Example 3]
[1]
  Moisture absorption rates after 1 month: 2.2%
  Moisture absorption rates after 2 months: 2.8%
  Moisture absorption rates after 2 weeks: 1.6%
IPF model (bleomycin)
  overall effect on idiopathic pulmonary fibrosis: can significantly alleviate idiopathic pulmonary fibrosis

## CN(C)C[C@@H]1C(=O)O[C@@H]2C[C@@]3(C)CC[C@@H](O)[C@]4(CO4)[C@@H]3C[C@H]12.O=C(O)CCC(=O)O
[1]
  hygroscopicity (in words): obviously reduced
[1]; listed as crystal form A of the compound (I)
  hygroscopicity (in words): basically non-hygroscopic
[2]; [3]
  AUC: 40.6 µg·h/mL
  Cmax: 21300 ng/mL
  Tmax: 0.11 h
  half-life: 1.35 h
[2]; [4]
  AUC: 174 µg·h/mL
  Cmax: 56300 ng/mL
  Tmax: 0.67 h
  half-life: 1.91 h
[2]; po 150 mpk vs iv 30 mpk, read-out: bioavailability
  bioavailability: 85.8%
IPF model (bleomycin); 100 mpk, administration from day 7, left lung taken on day 14
  pathological sections (area of pulmonary fibrosis focus, alveolar structure): can obviously reduce the area of pulmonary fibrosis focus and normalize the alveolar structure
IPF model (bleomycin); 100 mpk, day 14
  forced vital capacity (FVC): can significantly improve the FVC of mice
IPF model (bleomycin); 100 mpk, day 14, vs Nintedanib (100 mpk) and Pirfenidone (200 mpk)
  pulmonary fibrosis area (fibrotic percentage): superior to the positive drugs
IPF model (bleomycin); 100 mpk, right lung, day 14
  expression of hydroxyproline (content of collagen in the lungs): can significantly reduce the content of collagen in the lungs
IPF model (bleomycin)
  overall effect on idiopathic pulmonary fibrosis: can significantly alleviate idiopathic pulmonary fibrosis

## CN(C)C[C@@H]1C(=O)O[C@@H]2C[C@@]3(C)CC[C@@H](O)[C@]4(CO4)[C@@H]3C[C@H]12.O=C(O)CCC(=O)O [Example 1]
[1]
  Moisture absorption rates after 1 month: 2.7%
  Moisture absorption rates after 2 months: 3.2%
  Moisture absorption rates after 2 weeks: 1.4%
[2]; crystal form A prepared by the methods in example 1 and example 3, read-out: bioavailabilities
  bioavailability: > 85.5%
IPF model (bleomycin)
  overall effect on idiopathic pulmonary fibrosis: can significantly alleviate idiopathic pulmonary fibrosis

## CN(C)C[C@@H]1C(=O)O[C@@H]2C[C@@]3(C)CC[C@@H](O)[C@]4(CO4)[C@@H]3C[C@H]12.O=C(O)CCC(=O)O [compound 1]
[1]
  Moisture absorption rates after 1 month: 12.7%
  Moisture absorption rates after 2 months: 22.6%
  Moisture absorption rates after 2 weeks: 8.1%

## CN(C)C[C@@H]1C(=O)O[C@@H]2C[C@@]3(C)CC[C@@H](O)[C@]4(CO4)[C@@H]3C[C@H]12.O=C(O)CCC(=O)O [Example 2]
[1]
  Moisture absorption rates after 1 month: 3.8%
  Moisture absorption rates after 2 months: 3.1%
  Moisture absorption rates after 2 weeks: 1.9%
